Where two headings read alike, the source gives them in different places.
Legend:
[1] = test system: HepG2 cells; test: Cell stress panel (CSP), 24 h, 8 concentrations, BIFROST global PoD; type: cell-based; conditions: HepG2; cell stress panel PoD
Experimental: Compounds were tested using the previously developed cell stress panel ([Hatherell et al. 2020]) and the expanded biomarker panel outlined in Middleton et al. HepG2 cells were treated with all compounds for 24 h across 8 concentrations prior to biomarker analysis. The same plate layout and number of replicates (3 biological and 2 technical) were used as previously for each assay within the panel.

[2] = test system: HepG2 cells; test: High-throughput transcriptomics (HTTr, TempO-Seq), HepG2, 24 h; type: cell-based, human; conditions: HepG2; for pod_httr_bifrost PoD: HTTr BIFROST PoD; for podl_path_minbmd PoD: HTTr minimum pathway BMD(L)
Experimental: (§1) HepG2, HepaRG, and MCF7 cells were treated with each compound for 24 h across a dose range of 7 concentrations and lysed using TempO-Seq lysis buffer (BioSpyder Technologies, proprietary kit, see [Middleton et al. 2022] for method details). Sequencing was performed using TempO-Seq (BioClavis) version 2 of the human whole transcriptome panel and analyzed as described previously in Middleton et al.

[3] = test system: Tubulin (r); test: IPP Tubulin binding; set-up: species or system rat; conditions: 100 uM; ligand/control Colchicine
[4] = molecular target: Potassium voltage-gated channel subfamily H member 2 hERG, KCNH2 (h) (Homo sapiens, UniProt Q12809); conditions: human, 100 µM
Chain of Potassium voltage-gated channel subfamily H member 2 hERG, KCNH2 (h) (Q12809 whole entry): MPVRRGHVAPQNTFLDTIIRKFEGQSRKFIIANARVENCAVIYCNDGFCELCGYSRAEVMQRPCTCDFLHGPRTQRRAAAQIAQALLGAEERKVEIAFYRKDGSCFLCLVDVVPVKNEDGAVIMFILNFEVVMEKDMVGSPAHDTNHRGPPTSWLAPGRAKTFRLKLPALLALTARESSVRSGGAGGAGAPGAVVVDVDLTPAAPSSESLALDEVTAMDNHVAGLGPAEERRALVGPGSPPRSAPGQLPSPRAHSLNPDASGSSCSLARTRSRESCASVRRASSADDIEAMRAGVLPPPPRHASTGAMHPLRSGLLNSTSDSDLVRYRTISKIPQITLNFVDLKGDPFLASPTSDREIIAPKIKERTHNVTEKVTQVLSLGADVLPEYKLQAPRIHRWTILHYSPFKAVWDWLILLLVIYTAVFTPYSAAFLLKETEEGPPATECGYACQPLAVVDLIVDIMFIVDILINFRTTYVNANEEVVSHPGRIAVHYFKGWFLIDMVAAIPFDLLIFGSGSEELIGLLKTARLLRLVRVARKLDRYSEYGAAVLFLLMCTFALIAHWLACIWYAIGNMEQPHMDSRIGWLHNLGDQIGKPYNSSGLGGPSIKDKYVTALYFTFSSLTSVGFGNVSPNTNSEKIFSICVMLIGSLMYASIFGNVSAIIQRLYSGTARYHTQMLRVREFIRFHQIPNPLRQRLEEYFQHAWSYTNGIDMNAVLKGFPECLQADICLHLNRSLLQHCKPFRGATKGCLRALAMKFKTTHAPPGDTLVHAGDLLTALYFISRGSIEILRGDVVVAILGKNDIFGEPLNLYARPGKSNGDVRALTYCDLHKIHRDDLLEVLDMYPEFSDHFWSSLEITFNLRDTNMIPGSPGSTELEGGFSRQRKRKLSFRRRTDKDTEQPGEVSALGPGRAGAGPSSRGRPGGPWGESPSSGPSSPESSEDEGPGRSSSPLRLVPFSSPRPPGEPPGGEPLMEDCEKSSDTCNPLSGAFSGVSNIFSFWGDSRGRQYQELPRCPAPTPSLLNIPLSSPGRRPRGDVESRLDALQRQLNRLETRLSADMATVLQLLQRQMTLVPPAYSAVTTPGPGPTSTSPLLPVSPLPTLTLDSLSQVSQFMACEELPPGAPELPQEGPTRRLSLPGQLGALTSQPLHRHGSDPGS

[5] = human
[6] = molecular target: T1, Estrogen receptor, ER1 (h) (Homo sapiens, UniProt P03372); test: IPP ER1 coactivator recruitment (agonist); type: biochemical; conditions: 100 uM, estriol, * denotes assay interference (2-Amino-6-chloro-4-nitrophenol, HC Red 3)
T1 construct: purchased Eurofins Cerep (SafetyScreen44-based IPP panel)
T1 sequence (P03372 1-595): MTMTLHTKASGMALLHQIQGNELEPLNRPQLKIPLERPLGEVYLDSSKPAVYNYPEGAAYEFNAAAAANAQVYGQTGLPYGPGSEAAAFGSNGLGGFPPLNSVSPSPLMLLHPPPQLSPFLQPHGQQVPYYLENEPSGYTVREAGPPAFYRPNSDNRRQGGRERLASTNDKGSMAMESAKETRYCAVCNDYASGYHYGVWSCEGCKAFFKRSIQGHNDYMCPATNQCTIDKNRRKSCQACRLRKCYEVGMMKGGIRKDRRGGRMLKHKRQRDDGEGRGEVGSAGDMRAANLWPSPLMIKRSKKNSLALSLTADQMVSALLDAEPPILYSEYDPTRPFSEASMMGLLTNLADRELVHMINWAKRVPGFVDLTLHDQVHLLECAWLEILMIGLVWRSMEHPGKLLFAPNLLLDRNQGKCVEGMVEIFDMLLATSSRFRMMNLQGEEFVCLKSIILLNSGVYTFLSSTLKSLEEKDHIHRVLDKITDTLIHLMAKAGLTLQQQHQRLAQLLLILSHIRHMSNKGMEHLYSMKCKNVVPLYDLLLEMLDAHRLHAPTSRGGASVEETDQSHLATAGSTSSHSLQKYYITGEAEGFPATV

[7] = test system: Sodium channel protein type 5 subunit alpha (site 2), SCN5A (r); type: binding, rat; conditions: IPP screening at 100 uM; control veratridine
[8] = test system: 63 targets with known safety liabilities; test: In vitro pharmacological profiling (IPP) panel, screening at 10 or 100 µM and dose response, minimum IC50/AC50; type: biochemical; conditions: lowest AC50 across IPP panel (systemic targets); cell_type -; read-out: ipp_lowest_ac50_systemic PoD
[9] = test system: Potassium Voltage-Gated Channel Kv non-selective, KCNQ1 (r); test: IPP KCNQ1 binding (antagonist radioligand); set-up: species or system rat; conditions: IPP screening at 100 uM; control α-dendrotoxin
[10] = test system: rat; conditions: cited from earlier work; for PoD (NOAEL): rat, ref ToxRefDB/Paul-Friedman et al. (2020)/regulatory opinions
[11] = molecular target: T2, Adenosine receptor A2a, ADORA2A (h) (Homo sapiens, UniProt P29274); test: IPP ADORA2A binding (agonist radioligand); conditions: IPP screening at 100 uM; control NECA
T2 construct: purchased Eurofins Cerep (SafetyScreen44-based IPP panel)
T2 sequence (P29274 whole entry): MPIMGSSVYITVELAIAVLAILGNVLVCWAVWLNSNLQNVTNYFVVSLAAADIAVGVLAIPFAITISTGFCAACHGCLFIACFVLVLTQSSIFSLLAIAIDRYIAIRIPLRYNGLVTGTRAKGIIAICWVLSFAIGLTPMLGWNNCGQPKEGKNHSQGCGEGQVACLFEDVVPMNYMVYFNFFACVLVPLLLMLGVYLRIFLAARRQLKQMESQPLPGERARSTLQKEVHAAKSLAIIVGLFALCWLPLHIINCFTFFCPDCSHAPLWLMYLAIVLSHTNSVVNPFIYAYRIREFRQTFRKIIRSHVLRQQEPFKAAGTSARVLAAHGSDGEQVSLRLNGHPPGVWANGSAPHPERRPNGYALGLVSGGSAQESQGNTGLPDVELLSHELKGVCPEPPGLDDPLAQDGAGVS

[12] = test system: HepaRG cells; test: High-throughput transcriptomics (HTTr, TempO-Seq), HepaRG, 24 h; type: cell-based, human; conditions: HepaRG; for pod_httr_bifrost PoD: HTTr BIFROST PoD; for podl_path_minbmd PoD: HTTr minimum pathway BMD(L)
Experimental: as §1

[13] = molecular target: T1, Estrogen receptor, ER1 (h); test: IPP ER1 coactivator recruitment (antagonist); type: biochemical; conditions: 100 uM, estriol, * denotes assay interference (2-Amino-6-chloro-4-nitrophenol, HC Red 3)
[14] = test system: Glutamate receptor ionotropic NMDA 1 non-selective, GRIN1 (r)
[15] = test system: Gamma-aminobutyric acid receptor subunit alpha-1 BZD site, GABRA1A (r); type: binding, rat
[16] = test system: Thyroid hormone receptor alpha, THRA (h); test: IPP THRA coactivator recruitment (agonist); type: biochemical, human; conditions: 100 uM; agonist; T3; * denotes assay interference (2-Amino-6-chloro-4-nitrophenol, HC Red 3)
[17] = test system: MCF7 cells; test: High-throughput transcriptomics (HTTr, TempO-Seq), MCF7, 24 h; type: cell-based, human; conditions: MCF-7; for pod_httr_bifrost PoD: HTTr BIFROST PoD; for podl_path_minbmd PoD: HTTr minimum pathway BMD(L)
Experimental: as §1

[18] = PBK level L2; taken or scaled from references (median where several); ref [6],[7],[10],[19]; cited from earlier work
[19] = PBK level L2; single value or median; ref [2],[4],[6],[7],[8],[10],[11],[15],[18],[27],[34]; cited from earlier work
[20] = skin penetration (PBK input); conditions: PBK level L2, [28] (ibuprofen)
[21] = cited from earlier work
[22] = neurological effects, ref SCCS/1582/16
[23] = IPP screening at 100 uM, control CGS 19755
[24] = IPP screening at 100 uM, control diazepam
[25] = optimised based on [21] (glutaraldehyde), [23] (HCRed3)
[26] = IV bolus 391 mg, healthy 2 male 3 female, calibration, ref Pentikäinen et al. 1979
[27] = IV infusion 195 mg, 4 healthy male, validation, ref Tucker et al. 1981
[28] = Oral 391 mg (IR: Tablet), fasted, healthy 2 male 3 female, calibration, ref Pentikäinen et al. 1979
[29] = Oral 391 mg (IR: Tablet), fed, healthy 12 male 4 female, validation, ref Tucker et al. 1981

| SMILES | pod_cell_stress PoD [1] [µM] | pod_httr_bifrost PoD [2] [µM] | podl_path_minbmd PoD [2] [µM] | IPP screening %, Specific binding [3] [%] | IPP screening %, Specific binding [4] [%] | risk [5] | IPP screening %, Coactivator recruitment [6] [%] | Specific binding [7] [%] | AC50 [8] [nM] | Specific binding [9] [%] | PoD (NOAEL) ([10]; 90 day oral rat study) [mg/kg bw/day] | Specific binding [11] [%] | pod_httr_bifrost PoD [12] [µM] | podl_path_minbmd PoD [12] [µM] | IPP screening %, Coactivator recruitment [13] [%] | Specific binding [14, 23] [%] | Specific binding [15, 24] [%] | IPP screening %, Coactivator recruitment [16] [%] | pod_httr_bifrost PoD [17] [µM] | podl_path_minbmd PoD [17] [µM] | further results |
| --- | --- | --- | --- | --- | --- | --- | --- | --- | --- | --- | --- | --- | --- | --- | --- | --- | --- | --- | --- | --- | --- |
| CCOc1cc(CCC(C)=O)ccc1O [Ethylzingerone, 4-(3-Ethoxy-4-hydroxyphenyl)butan-2-one] | 17.0917 | 11.971 | 445.376 | 16.0 | 0.2 | 0 | 2.0 | 8.8 | 1390 | 0.7 | 100 | 4.5 | 29.321 | 291.446 | -14.0 | -16.9 | -2.5 | 4.0 | 11.821 | 119.724 | local NOAEL ([10]; 90 day oral rat study, ref SCCS/1582/16): 300 mkd; BMD [10, 22]: 220 mkd; BMDL [10, 22]: 110 mkd |
| CCCCCCC(O)CO (stereo not drawn) [1,2-Octanediol, Octane-1,2-diol] | 272.296 | 108.846 | 1029.23 | 3.0 | 14.6 | 0 | 0.0 | 26.3 | – | -4.4 | – | 1.4 | 103.989 | 259.271 | 0.0 | 3.1 | 10.0 | 2.0 | 48.9281 | 968.894 | PoD (NOAEL) ([10]; developmental): 150 mg/kg bw/day |
| Nc1ccc(NCCO)c([N+](=O)[O-])c1 [HCRed3] | – | – | – | – | – | – | – | – | – | – | – | – | – | – | – | – | – | – | – | – | Intrinsic Liver Clearance [18]: 248.1 L/h; Fup [19]: 62.28%; Diffusivity Dermis [20, 25]: 1.00E-08 cm^2/s; Diffusivity Stratum Corneum [20, 25]: 1.00E-08 cm^2/s; Diffusivity Viable Epidermis [20, 25]: 1.00E-10 cm^2/s; Partition Coefficient Stratum Corneum/Water ([20]; optimised based on [21] (glutaraldehyde), [23] (HCRed3), no reference printed (DEET)): 1.50; Diffusivity Vehicle ([20]; optimised based on [23] (HCRed3)): 1.00E-05 cm^2/s |
| CN(C)C(=N)N=C(N)N [Metformin, N,N-Dimethyltriimidodicarbonic diamide] | 133.042 | 107.11 | 592.816 | 14.0 | – | 1 | – | – | – | – | – | -1.4 | 80.527 | 386.965 | – | – | – | 4.0 | 45.2765 | 722.808 | Specific binding [14]: -9.9%; Specific binding [15]: 0.6%; Reported AUC0-t [21, 26]: 23529 ng·h/mL; Reported cmax [21, 26]: 47.318 µg/mL; Reported tmax [21, 26]: 4.2 min; Reported AUC0-t [21, 27]: 8905.5 ng·h/mL; Reported cmax [21, 27]: 8.93 µg/mL; Reported tmax [21, 27]: 0 min; Reported AUC0-t [21, 28]: 10696 ng·h/mL; Reported cmax [21, 28]: 3.1615 µg/mL; Reported tmax [21, 28]: 43.11 min; Reported AUC0-t [21, 29]: 11234 ng·h/mL; Reported cmax [21, 29]: 2 µg/mL; Reported tmax [21, 29]: 104 min |
| Cc1c(O)cccc1O [2-methyl-1,3-benzenediol, 2-Methylbenzene-1,3-diol] | 8.64 | 0.2182 | 169.35 | -14.0 | 3.3 | 0 | 13.0 | 41.6 | 900 | 27.5 | 100 | 8.4 | 22.9719 | 117.879 | -6.0 | 1.8 | 6.5 | 2.0 | 1.165 | 52.4925 | NOAEL ([10]; 90-day study, body weight changes to rats, ref [3,4]): 100 mg/kg bw/day; NOAEL for teratogenicity and maternal toxicity ([10]; ref [3,4]): 400 mg/kg bw/day |
